Data published in ChEMBL document CHEMBL2413058, “Structure-cytotoxic activity relationship of sesquilignan, morinol A” (Bioorg Med Chem Lett, 2013).

Assays:
[1] = system: HL-60; assay: Cytotoxicity against human HL60 cells after 48 hrs by WST8 assay; format: functional, cell-based; details: HL-60, 48 h
[2] = system: HeLa; assay: Cytotoxicity against human HeLa cells after 48 hrs by WST8 assay; format: functional, cell-based
[3] = system: HeLa; assay: Cytotoxicity against human HeLa cells at 100 uM after 48 hrs by WST8 assay; format: functional
[4] = system: HeLa; assay: Ratio of IC50 for human HeLa cells to IC50 for human HL60 cells; format: functional
[5] = system: HL-60; assay: Cytotoxicity against human HL60 cells at 100 uM after 48 hrs by WST8 assay; format: functional; details: HL-60, 48 h

SMILES | IC50 [1] [µM] | IC50 [2] [µM] | further results
O[C@@H](c1ccccc1)[C@H]1CO[C@H](c2ccccc2)[C@@H](C/C=C/c2ccccc2F)C1 | 9.53 | 9.73 | –
COc1ccc(/C=C/C[C@H]2C[C@H]([C@H](O)c3ccc(OC)c(OC)c3)CO[C@@H]2c2ccc(OC)c(OC)c2)cc1OC | 23.5 | 34.6 | –
COc1ccc(/C=C/C[C@@H]2C[C@@H]([C@@H](O)c3ccc(OC)c(OC)c3)CO[C@H]2c2ccc(OC)c(OC)c2)cc1OC | 26 | 30.6 | –
COc1ccc(CCC[C@H]2C[C@@H]([C@@H](O)c3ccc(OC)c(OC)c3)CO[C@@H]2c2ccc(OC)c(OC)c2)cc1OC | – | 37.7 | –
COc1ccc(/C=C/C[C@H]2C[C@@H]([C@@H](OC(C)=O)c3ccc(OC)c(OC)c3)CO[C@@H]2c2ccc(OC)c(OC)c2)cc1OC | – | > 100 | inhibition at 100 µM [3]: 29%
COc1ccc(/C=C/C[C@H]2C[C@@H]([C@@H](OC)c3ccc(OC)c(OC)c3)CO[C@@H]2c2ccc(OC)c(OC)c2)cc1OC | – | > 100 | inhibition at 100 µM [3]: 4.8%
COc1ccc([C@H]2OC[C@H]([C@@H](O)c3ccc(OC)c(OC)c3)C[C@@H]2C/C=C/c2ccc(OC)c(OC)c2)cc1 | – | 46.7 | –
COc1cccc([C@H]2OC[C@H]([C@@H](O)c3ccc(OC)c(OC)c3)C[C@@H]2C/C=C/c2ccc(OC)c(OC)c2)c1 | – | 21.8 | –
COc1ccc(/C=C/C[C@H]2C[C@@H]([C@@H](O)c3ccc(OC)c(OC)c3)CO[C@@H]2c2ccccc2)cc1OC | – | 17 | –
COc1ccc([C@H](O)[C@H]2CO[C@H](c3ccc(OC)c(OC)c3)[C@@H](C/C=C/c3ccc(OC)c(OC)c3)C2)cc1 | – | 46 | –
COc1cccc([C@H](O)[C@H]2CO[C@H](c3ccc(OC)c(OC)c3)[C@@H](C/C=C/c3ccc(OC)c(OC)c3)C2)c1 | – | 21.2 | –
COc1ccc(/C=C/C[C@H]2C[C@@H]([C@@H](O)c3ccccc3)CO[C@@H]2c2ccc(OC)c(OC)c2)cc1OC | – | 15.5 | –
COc1ccc(/C=C/C[C@H]2C[C@@H]([C@@H](O)c3ccc(OC)c(OC)c3)CO[C@@H]2c2ccc(OC)c(OC)c2)cc1 | – | 12.2 | –
COc1cccc(/C=C/C[C@H]2C[C@@H]([C@@H](O)c3ccc(OC)c(OC)c3)CO[C@@H]2c2ccc(OC)c(OC)c2)c1 | – | 14 | –
COc1ccc([C@H]2OC[C@H]([C@@H](O)c3ccc(OC)c(OC)c3)C[C@@H]2C/C=C/c2ccccc2)cc1OC | – | 14.8 | –
C=CC[C@H]1C[C@@H]([C@@H](O)c2ccccc2)CO[C@@H]1c1ccccc1 | 36 | 25.4 | –
O[C@@H](c1ccccc1)[C@H]1CO[C@H](c2ccccc2)[C@@H](C/C=C/c2ccccc2)C1 | 7.04 | 6.06 | Ratio IC50 [4]: 1.5
O[C@@H](c1ccccc1)[C@H]1CO[C@H](c2ccccc2)[C@@H](C/C=C/c2ccccn2)C1 | 36.4 | 33.8 | –
O[C@@H](c1ccccc1)[C@H]1CO[C@H](c2ccccc2)[C@@H](C/C=C/c2cccnc2)C1 | > 100 | > 100 | inhibition at 100 µM [5]: 48%; inhibition at 100 µM [3]: 4%
O[C@@H](c1ccccc1)[C@H]1CO[C@H](c2ccccc2)[C@@H](C/C=C/c2ccncc2)C1 | > 100 | > 100 | inhibition at 100 µM [5]: 13%; inhibition at 100 µM [3]: 34%
Oc1ccccc1/C=C/C[C@H]1C[C@@H]([C@@H](O)c2ccccc2)CO[C@@H]1c1ccccc1 | 10.8 | 21.8 | –
Oc1cccc(/C=C/C[C@H]2C[C@@H]([C@@H](O)c3ccccc3)CO[C@@H]2c2ccccc2)c1 | 12.8 | 18.6 | –
Oc1ccc(/C=C/C[C@H]2C[C@@H]([C@@H](O)c3ccccc3)CO[C@@H]2c2ccccc2)cc1 | 7.38 | 14.4 | –
COc1ccccc1/C=C/C[C@H]1C[C@@H]([C@@H](O)c2ccccc2)CO[C@@H]1c1ccccc1 | 10.1 | 14.7 | –
COc1cccc(/C=C/C[C@H]2C[C@@H]([C@@H](O)c3ccccc3)CO[C@@H]2c2ccccc2)c1 | 9.62 | 10.9 | –

SMILES | IC50 [1] [µM] | IC50 [2] [µM] | further results
COc1ccc(/C=C/C[C@H]2C[C@@H]([C@@H](O)c3ccccc3)CO[C@@H]2c2ccccc2)cc1 | 9.01 | 8.3 | –
O[C@@H](c1ccccc1)[C@H]1CO[C@H](c2ccccc2)[C@@H](C/C=C/c2cccc(F)c2)C1 | 9.17 | 8.38 | –
O[C@@H](c1ccccc1)[C@H]1CO[C@H](c2ccccc2)[C@@H](C/C=C/c2ccc(F)cc2)C1 | 8.11 | 8.34 | –
O=[N+]([O-])c1ccccc1/C=C/C[C@H]1C[C@@H]([C@@H](O)c2ccccc2)CO[C@@H]1c1ccccc1 | 7.25 | 11.8 | –
O=[N+]([O-])c1cccc(/C=C/C[C@H]2C[C@@H]([C@@H](O)c3ccccc3)CO[C@@H]2c2ccccc2)c1 | 6.35 | 7.85 | –
O=[N+]([O-])c1ccc(/C=C/C[C@H]2C[C@@H]([C@@H](O)c3ccccc3)CO[C@@H]2c2ccccc2)cc1 | 4.88 | 12.4 | –
Cc1ccc(/C=C/C[C@H]2C[C@@H]([C@@H](O)c3ccccc3)CO[C@@H]2c2ccccc2)cc1C | 9.88 | 10 | –
O[C@@H](c1ccccc1)[C@H]1CO[C@H](c2ccccc2)[C@@H](C/C=C/C2CCCC2)C1 | 9.06 | 9.33 | –
O[C@@H](c1ccccc1)[C@H]1CO[C@H](c2ccccc2)[C@@H](C/C=C/C2CCCCC2)C1 | 6.26 | 6.44 | –
CCCCCC/C=C/C[C@H]1C[C@@H]([C@@H](O)c2ccccc2)CO[C@@H]1c1ccccc1 | 4.99 | 7.4 | –
COc1ccc(CCC[C@@H]2C[C@@H]([C@@H](O)c3ccc(OC)c(OC)c3)CO[C@H]2c2ccc(OC)c(OC)c2)cc1OC | – | 35.7 | –
COc1ccc(/C=C/C[C@@H]2C[C@@H]([C@@H](OC(C)=O)c3ccc(OC)c(OC)c3)CO[C@H]2c2ccc(OC)c(OC)c2)cc1OC | – | > 100 | inhibition at 100 µM [3]: 48%
COc1ccc(/C=C/C[C@@H]2C[C@@H]([C@@H](OC)c3ccc(OC)c(OC)c3)CO[C@H]2c2ccc(OC)c(OC)c2)cc1OC | – | > 100 | inhibition at 100 µM [3]: 34%
COc1ccc([C@@H]2OC[C@H]([C@@H](O)c3ccc(OC)c(OC)c3)C[C@H]2C/C=C/c2ccc(OC)c(OC)c2)cc1 | – | 29.2 | –
COc1cccc([C@@H]2OC[C@H]([C@@H](O)c3ccc(OC)c(OC)c3)C[C@H]2C/C=C/c2ccc(OC)c(OC)c2)c1 | – | 30.1 | –
COc1ccc(/C=C/C[C@@H]2C[C@@H]([C@@H](O)c3ccc(OC)c(OC)c3)CO[C@H]2c2ccccc2)cc1OC | – | 16.1 | –
COc1ccc([C@H](O)[C@H]2CO[C@@H](c3ccc(OC)c(OC)c3)[C@H](C/C=C/c3ccc(OC)c(OC)c3)C2)cc1 | – | 32.2 | –
COc1cccc([C@H](O)[C@H]2CO[C@@H](c3ccc(OC)c(OC)c3)[C@H](C/C=C/c3ccc(OC)c(OC)c3)C2)c1 | – | 18.6 | –
COc1ccc(/C=C/C[C@@H]2C[C@@H]([C@@H](O)c3ccccc3)CO[C@H]2c2ccc(OC)c(OC)c2)cc1OC | – | 16.8 | –
COc1ccc(/C=C/C[C@@H]2C[C@@H]([C@@H](O)c3ccc(OC)c(OC)c3)CO[C@H]2c2ccc(OC)c(OC)c2)cc1 | – | 17.1 | –
COc1cccc(/C=C/C[C@@H]2C[C@@H]([C@@H](O)c3ccc(OC)c(OC)c3)CO[C@H]2c2ccc(OC)c(OC)c2)c1 | – | 16.4 | –
COc1ccc([C@H](O)[C@H]2CO[C@@H](c3ccc(OC)c(OC)c3)[C@H](C/C=C/c3ccccc3)C2)cc1OC | – | 16.1 | –
COc1ccc(/C=C/C[C@H]2C[C@@H]([C@@H](O)c3ccc(OC)c(OC)c3)CO[C@@H]2c2ccc(OC)c(OC)c2)cc1OC | 34.7 | 23.8 | –
COc1ccc(/C=C/C[C@@H]2C[C@H]([C@H](O)c3ccc(OC)c(OC)c3)CO[C@H]2c2ccc(OC)c(OC)c2)cc1OC | – | 28.7 | –
